Reference: PMC10786919, “Design-rules for stapled peptides with in vivo activity and their application to Mdm2/X antagonists” (Nature Communications, 2024)
Converted amounts (≈) assume the structure as drawn. Read-outs that look alike come from different tables or passages of the source. Positions of bridges follow the written chain, without caps; N, C: chain ends. Non-standard residues stand in square brackets, D forms with d. Residues, ends and D or L forms follow the SMILES beside them. Lys(N3) = [N-]=[N+]=NCCCC[C@H](N)C(=O)O; R8 = C=CCCCCCC[C@@](C)(N)C(=O)O; αMeE = C[C@](N)(CCC(=O)O)C(=O)O; Cba = N[C@@H](CC1CCC1)C(=O)O; S5 = C=CCCC[C@](C)(N)C(=O)O; βAla = NCCC(=O)O

Key:
EPSA = type: physicochemical
[1] = Solubility assay (kinetic solubility, PBS pH 7); type: physicochemical; conditions: for solubility kinetic: read-out: Solubility
Summary of the method: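 Std: 10 mM stock → 100 µM in ACN/MeOH/DMSO (10:80:10). Sol. [µM] = (sample peak area / std peak area) × std conc.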

Ca Ski cell line = conditions: 72 h
Summary of the method: (§1)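 Compound dilution series (10 points, 3-fold, 10 mM top stock in DMSO) tested on overnight-plated Ca Ski cells in RPMI1640/10% FBS and on blasticidin-selected p53RE-bla HCT-116 cells in McCoy's 5A; read-out was CellTiter-Glo 2.0 luminescence after room-temperature equilibration.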

[2] = system: CellSensor p53RE-bla HCT-116 Cell Line; conditions: 72 h
Summary of the method: as §1

[3] = Lactate dehydrogenase (LDH) release assay; type: cell-based; conditions: LDH: Cytotoxicity assay: EC50
Summary of the method: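 HCT116 cells stably carrying a p53-responsive β-lactamase reporter, seeded at 8000 cells/well, exposed to compound with 0.5% final DMSO. LDH release read with the CytoTox-ONE membrane integrity kit. Values are geometric means of at least three biological replicates.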

in vitro = conditions: Nanoclick permeability assay EC50
Summary of the method: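 Azido-peptide permeability was read as loss of NanoBRET signal (donor 450 nm, acceptor 610 nm) after adding NanoBret618-azide at 10 μM final.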

[4] = Experimental LogD (partition coefficient); conditions: for logD: not stated, Partition Coeff LogD
[5] = pH 7, aqueous buffer, kinetic from dmso stock, pH 7, PBS

Row | Structure (SMILES) | EPSA (EPSA; EPSA) [A^2] | Solubility [1] | Solubility ([1]; pH 7, PBS) | EC50 (Ca Ski cell line) [nM] | EC50 [2] [nM] | EC50 [3] [nM] | cell entry EC50 (in vitro) [nM] | Partition Coeff LogD [4] | solubility kinetic [1, 5] [µM] | solubility kinetic [1] [µM] | logD [4] | EPSA (EPSA)
1 | CC(=O)N[C@@H](CCCCN=[N+]=[N-])C(=O)NCCC(=O)N[C@@H](CC(C)C)C(=O)N[C@H](C(=O)N[C@@H](Cc1ccccc1)C(=O)N[C@]1(C)CCCCCCC=CCCC[C@@](C)(C(=O)N[C@@H](C)C(=O)N[C@@H](C)C(=O)N[C@@H](Cc2ccccc2)C(=O)N[C@@H](C)C(=O)N[C@@H](C)C(=O)N[C@@H](Cc2ccccc2)C(N)=O)NC(=O)[C@H](CC2CCC2)NC(=O)[C@H](CCC(N)=O)NC(=O)[C@H](C)NC(=O)[C@H](Cc2c[nH]c3ccccc23)NC(=O)[C@H](Cc2ccc(O)cc2)NC(=O)[C@H](CCC(=O)O)NC1=O)[C@@H](C)O [MP-040] (Ac-[Lys(N3)][βAla]LTF[R8]EYWAQ[Cba][S5]AAFAAF-NH2; staple 6-13) | 204 | P.B. | Poorly Behaved | > 49800 | 1220 | > 50700 | 439 | Poorly Behaved |  |  |  | 
2 | CC(=O)N[C@@H](CCCCN=[N+]=[N-])C(=O)NCCC(=O)N[C@@H](CC(C)C)C(=O)N[C@H](C(=O)N[C@@H](Cc1ccccc1)C(=O)N[C@]1(C)CCCCCCC=CCCC[C@@](C)(C(=O)N[C@@H](C)C(=O)N[C@@H](C)C(=O)N[C@@H](C)C(=O)N[C@@H](C)C(=O)N[C@@H](C)C(=O)N[C@@H](Cc2ccccc2)C(N)=O)NC(=O)[C@H](CC2CCC2)NC(=O)[C@H](CCC(N)=O)NC(=O)[C@H](C)NC(=O)[C@H](Cc2c[nH]c3ccccc23)NC(=O)[C@H](Cc2ccc(O)cc2)NC(=O)[C@H](CCC(=O)O)NC1=O)[C@@H](C)O [MP-060] (Ac-[Lys(N3)][βAla]LTF[R8]EYWAQ[Cba][S5]AAAAAF-NH2; staple 6-13) | 198 | P.B. | Poorly Behaved | > 49800 |  | > 50700 | 1090 | Poorly Behaved |  |  |  | 
3 | CC(=O)N[C@@H](CCCCN=[N+]=[N-])C(=O)NCCC(=O)N[C@@H](CC(C)C)C(=O)N[C@H](C(=O)N[C@@H](Cc1ccccc1)C(=O)N[C@]1(C)CCCCCCC=CCCC[C@@](C)(C(=O)N[C@@H](C)C(=O)N[C@@H](C)C(=O)N[C@@H](Cc2ccccc2)C(=O)N[C@@H](C)C(=O)N[C@@H](C)C(=O)N[C@H](Cc2ccccc2)C(N)=O)NC(=O)[C@H](CC2CCC2)NC(=O)[C@H](CCC(N)=O)NC(=O)[C@H](C)NC(=O)[C@H](Cc2c[nH]c3ccccc23)NC(=O)[C@H](Cc2ccc(O)cc2)NC(=O)[C@H](CCC(=O)O)NC1=O)[C@@H](C)O [MP-063] (Ac-[Lys(N3)][βAla]LTF[R8]EYWAQ[Cba][S5]AAFAA[dF]-NH2; staple 6-13) | 199 |  |  | > 49800 | 2780 | > 50700 | 394 |  | 9 (≈ 20.9 µg/mL) |  |  | 
4 | CC(=O)N[C@@H](CCCCN=[N+]=[N-])C(=O)NCCC(=O)N[C@@H](CC(C)C)C(=O)N[C@H](C(=O)N[C@@H](Cc1ccccc1)C(=O)N[C@]1(C)CCCCCCC=CCCC[C@@](C)(C(=O)N[C@@H](C)C(=O)N[C@@H](C)C(=O)N[C@@H](Cc2ccccc2)C(=O)N[C@@H](C)C(=O)N[C@@H](C)C(=O)N[C@H](C)C(N)=O)NC(=O)[C@H](CC2CCC2)NC(=O)[C@H](CCC(N)=O)NC(=O)[C@H](C)NC(=O)[C@H](Cc2c[nH]c3ccccc23)NC(=O)[C@H](Cc2ccc(O)cc2)NC(=O)[C@H](CCC(=O)O)NC1=O)[C@@H](C)O [MP-228] (Ac-[Lys(N3)][βAla]LTF[R8]EYWAQ[Cba][S5]AAFAA[dA]-NH2; staple 6-13) | 199 |  |  | 30700 |  | > 50700 | 2510 |  | 2 (≈ 4.49 µg/mL) |  |  | 
5 | CC(=O)N[C@@H](CCCCN=[N+]=[N-])C(=O)NCCC(=O)N[C@@H](CC(C)C)C(=O)N[C@H](C(=O)N[C@@H](Cc1ccccc1)C(=O)N[C@]1(C)CCCCCCC=CCCC[C@@](C)(C(=O)N[C@@H](C)C(=O)N[C@@H](C)C(=O)N[C@@H](Cc2ccccc2)C(=O)N[C@@H](C)C(=O)N[C@@](C)(CCC(=O)O)C(=O)N[C@@H](Cc2ccccc2)C(N)=O)NC(=O)[C@H](CC2CCC2)NC(=O)[C@H](CCC(N)=O)NC(=O)[C@H](C)NC(=O)[C@H](Cc2c[nH]c3ccccc23)NC(=O)[C@H](Cc2ccc(O)cc2)NC(=O)[C@H](CCC(=O)O)NC1=O)[C@@H](C)O [MP-229] (Ac-[Lys(N3)][βAla]LTF[R8]EYWAQ[Cba][S5]AAFA[αMeE]F-NH2; staple 6-13) | 253 |  |  | 19900 | 2320 | > 50700 | 2090 |  | 153 (≈ 366 µg/mL) | 157 (≈ 376 µg/mL) | 2.93 | 
6 | CC(=O)N[C@@H](CCCCN=[N+]=[N-])C(=O)NCCC(=O)N[C@@H](CC(C)C)C(=O)N[C@H](C(=O)N[C@@H](Cc1ccccc1)C(=O)N[C@]1(C)CCCCCCC=CCCC[C@@](C)(C(=O)N[C@@H](CO)C(=O)N[C@@H](C)C(=O)N[C@@H](CCC(=O)O)C(N)=O)NC(=O)[C@H](CC2CCC2)NC(=O)[C@H](CCC(N)=O)NC(=O)[C@H](C)NC(=O)[C@H](Cc2c[nH]c3ccccc23)NC(=O)[C@H](Cc2ccc(O)cc2)NC(=O)[C@H](CCC(=O)O)NC1=O)[C@@H](C)O [MP-524] |  |  |  | > 49800 | 1340 | > 50700 | 1320 |  | 148 (≈ 300 µg/mL) |  | 2.1 | Poorly Behaved
7 | CC(=O)N[C@@H](CCCCN=[N+]=[N-])C(=O)NCCC(=O)N[C@@H](CC(C)C)C(=O)N[C@H](C(=O)N[C@@H](Cc1ccccc1)C(=O)N[C@]1(C)CCCCCCC=CCCC[C@@](C)(C(=O)N[C@@H](CO)C(=O)N[C@@H](C)C(=O)N[C@@H](C)C(N)=O)NC(=O)[C@H](CCC(=O)O)NC(=O)[C@H](CCC(N)=O)NC(=O)[C@H](C)NC(=O)[C@H](Cc2c[nH]c3ccccc23)NC(=O)[C@H](Cc2ccc(O)cc2)NC(=O)[C@H](CCC(=O)O)NC1=O)[C@@H](C)O [MP-841] | 255 |  |  | > 49800 |  | > 50700 | 878 |  | 162 (≈ 320 µg/mL) |  | 2.06 | 
8 | CC(=O)N[C@@H](CCCCN=[N+]=[N-])C(=O)NCCC(=O)N[C@@H](CC(C)C)C(=O)N[C@H](C(=O)N[C@@H](Cc1ccccc1)C(=O)N[C@]1(C)CCCCCCC=CCCC[C@@](C)(C(=O)N[C@@H](CO)C(=O)N[C@@H](C)C(=O)N[C@@H](C)C(N)=O)NC(=O)[C@H](CC2CCC2)NC(=O)[C@H](CCC(N)=O)NC(=O)[C@H](C)NC(=O)[C@H](Cc2c[nH]c3ccccc23)NC(=O)[C@H](CCC(=O)O)NC(=O)[C@H](CCC(=O)O)NC1=O)[C@@H](C)O [MP-842] | 216 |  |  | > 49800 | 23400 | > 50700 | 297 |  | 157 (≈ 304 µg/mL) |  | 2.25 | 
9 | CC(=O)N[C@@H](CCCCN=[N+]=[N-])C(=O)NCCC(=O)N[C@@H](CC(C)C)C(=O)N[C@H](C(=O)N[C@@H](CCC(=O)O)C(=O)N[C@]1(C)CCCCCCC=CCCC[C@@](C)(C(=O)N[C@@H](CO)C(=O)N[C@@H](C)C(=O)N[C@@H](C)C(N)=O)NC(=O)[C@H](CC2CCC2)NC(=O)[C@H](CCC(N)=O)NC(=O)[C@H](C)NC(=O)[C@H](Cc2c[nH]c3ccccc23)NC(=O)[C@H](Cc2ccc(O)cc2)NC(=O)[C@H](CCC(=O)O)NC1=O)[C@@H](C)O [MP-843] | 208 |  |  | > 49800 |  | > 50700 | 597 |  | 151 (≈ 295 µg/mL) |  | 1.78 | 
10 | CC(=O)N[C@@H](CCCCN=[N+]=[N-])C(=O)NCCC(=O)N[C@@H](CC(C)C)C(=O)N[C@H](C(=O)N[C@@H](Cc1ccccc1)C(=O)N[C@]1(C)CCCCCCC=CCCC[C@@](C)(C(=O)N[C@@H](CO)C(=O)N[C@@H](C)C(=O)N[C@@H](C)C(N)=O)NC(=O)[C@H](CC2CCC2)NC(=O)[C@H](CCC(N)=O)NC(=O)[C@H](C)NC(=O)[C@H](CCC(=O)O)NC(=O)[C@H](Cc2ccc(O)cc2)NC(=O)[C@H](CCC(=O)O)NC1=O)[C@@H](C)O [MP-956] | 198 |  |  | > 49800 |  | > 50700 | 9220 |  | 175 (≈ 335 µg/mL) |  | 1.7 | 
